# Patent publication EP0133795B1 (THE McLEAN HOSPITAL CORPORATION, priority 1983, dated 1985)
# Where a name gives a salt, the structure may show the parent alone.
# Columns and labels:
# [1] = system: self-stimulation reward; test: Self-stimulation reward test; format: in vivo, rats; conditions: for Max. DSSR: DSSR 0.3 designated as 100%
# Text: The procedure measured the capacity of a given pharmacological agent to inhibit rats from receiving stimulating currents provided by electrodes implanted in their brains (lateral hypothalamus), Stellar et al, Pharmacol. Biochem. & Behav., 18,433-442 (1983). The animals will press a lever to receive a current from the implanted electrode in preference to all else. The rate at which they press the lever depends on the intensity of the current (reward) that is being produced by the electrode. The intensity of the current is varied by raising the frequency at which […] pulses (0.1 msec duration) are delivered during a 0.5 sec time span in response to a lever press. A plot of the log of the frequency of the delivered pulses vs. the rate of lever presses for an animal gives a self-stimulation reward curve. Injection of a drug which has a tranquilizing effect shifts such a curve to higher frequencies. The shift of this curve (measured at the halfway point) gives a parameter which is expressed as the "Depression of the Self-Stimulation Reward" or DSSR. The maximum DSSR value obtained for the most powerful neutoleptics and tranquilizing compounds tested so far, seldom exceeds 0.3. This is designated as 100%. In the actual tests, the maximum DSSR value obtained for a given dose of drug and the half-life time [duration half-life (DHL)] of its return to 0% (the control state) was measured.
# [2] = system: CAI pyramidal cells; format: cell-based, Sprague-Dawley rats
# Method: Transverse slices of hippocampus (350-375 µm thick) were prepared from Sprague-Dawley rats (200-300 g) and transferred onto a nylon net fixed over a 1.5 ml superfusion chamber. The slices were maintained at 32-33°C in a humidified atmosphere of 95%/5% 02/C02. The standard medium consisted of (in mM): NaCl, 125; KCI, 3.5; CaC12,2; MgS04, 1.5; NaH2PO4, 1; NaHC03, 24; and glucose, 10. Low chloride medium was prepared by substituting sodium isethionate for sodium chloride.
# Extracellular potentials were recorded with NaCI-fitted micropipettes, and stimulus pulses were applied through bipolar platinum wire electrodes. The various drugs were dissolved in fresh medium (without glucose and phosphate) and applied to the surface of the tissue by pressure ejection from a micropipette, Sakai, Swartz and Woody, (1979).
# The inhibitory effectiveness of various compounds was investigated by measuring their ability to suppress the extracellular population spike recorded from the hippocampal CAI pyramidal layer and elicited by stimulation of stratum radiatum axons. The amplitude of this monosynaptic population spike is essentially proportional to the number of pyramidal cells discharging in response to a stimulus volley, Andersen, Bliss and Skrede, (1971).
# The various compounds were applied as droplets to the pyramidal layer approximately 75 µm from the recording electrode. The volume of a single drug application was about 300 picoliters. […] The volume ejected from each pipette was calibrated prior to use by measuring the diameter of the ejected droplet and adjusting the duration of the pressure pulse (usually 100-500 msec) until a standard diameter was reached. A constant droplet volume was used throughout the experiments. Where dose-response information was required, several pipettes with different drug concentrations were used.
# [3] = system: bicuculline-induced epileptic seizures; test: Delay of onset of bicuculline-induced seizures (anticonvulsant activity); format: in vivo, mouse; conditions: 84 mg/kg; 24 hr pretreatment; bicuculline 0.3 mg/kg; mean ± SEM, n ≥ 6
# Method: In a second behavioral test, the ability of a substance to prevent or delay the onset of biculline-induced epileptic seizures was measured. […] At 24 hr after i.p. injection of the cholesteryl derivative at a dose of 30 mg/kg (64 pmol/kg), the onset of seizures was delayed by 30% after an acute i.p. injection of bicuculline at 0.3 mg/kg. […] The dexamethasone and butyl esters had no effect.
# The compounds were also injected i.p. at 1, 6 and 24 hr before the administration of bicuculline (0.3 mg/kg) s.c. The latency to the onset of generalized tonic-clonic epileptic seizures and the protection against the lethality of bicuculline were measured and evaluated as a percent of the data for vehicle-injected controls. No significant changes were obtained at the 1 hr and 6 hr time points. At the 24 hr time, however, some compounds delayed while others accelerated the onset of seizures.
# The effect of the compound to delay the onset of a bicuculline-induced seizures was evaluated.
# The ability of a substance to delay the onset of bicuculline-induced epileptic seizures in the mouse was measured (Table X). […] At 24 hr after i.p. injection of the cholesteryl derivative (6) at a dose of 30 mg/kg (64 pmol/kg), the onset of seizures was delayed by 30% (as compared to saline controls) after an acute i.p. injection of bicuculline at 0.3 mg/kg. […] The dexamethasone and butyl esters had no effect on seizures in mice.
molecule,measurement,setting,value
1-Linolenoyl 2-gamma-aminobutyryl 3-gamma-vinyl-gamma-aminobutyryl glycerol dihydrochloride [Compound 40],Max. DSSR,"[1]; dose 16 μm/kg, Depression of the Self-Stimulation Reward",90
same,DHL,"[1]; dose 16 μm/kg, duration half-life of return to 0%",30 min
NCc1cc(=O)[nH]o1 [muscimol],duration of effect relative to a comparably effective dose of GABA,[2],roughly 100 times
same,effect with picrotoxin (10 µM) in the medium or low chloride medium,[2],little effect
same,doses required relative to GABA for effects of comparable magnitude,[2]; concentration in the drug pipette,nearly a thousand-fold lower
same,inhibition of the evoked population spike,[2]; droplets applied to the CAI pyramidal layer,dose-dependent inhibition
"C=CC(N)CCC(=O)O[C@H]1CC[C@@]2(C)C(=CC[C@H]3[C@@H]4CC[C@H]([C@H](C)CCCC(C)C)[C@@]4(C)CC[C@@H]32)C1 (stereo partly drawn) [Compound 33, Cholesteryl gamma-vinyl gamma-aminobutyrate hydrochloride]",Max. DSSR,[1]; dose 40 μm/kg,83
same,DHL,"[1]; dose 40 μm/kg, duration half-life of return to 0%",1440 to 2880 min
"C=CC(N)CCC(=O)O (stereo not drawn) [gamma-vinyl GABA, reference compound]",Max. DSSR,[1]; dose 31 μm/kg,0
same,DHL,"[1]; dose 31 μm/kg, duration half-life",0
"CC(C)CCC[C@@H](C)[C@H]1CC[C@H]2[C@@H]3CC=C4C[C@@H](O)CC[C@]4(C)[C@H]3CC[C@]12C [cholesterol, reference compound]",Onset of seizures: % Saline Control,[3],118 ± 6 % Saline Control
same,Survival Time: % Saline Control,[3],110 ± 7 % Saline Control
